Test results from patent US9187475B2, “Pyrrolopyridinone derivatives as TTX-S blockers” (RaQualia Pharma Inc., priority 2012, dated 2015).
pIC50, pKi: −log10 of the molar value.

Columns and labels:
Format in all cases: cell-based
[1] = biological target: T1, human NaV1.3 channels (Homo sapiens, UniProt Q9NY46); experiment: FRET assay, HEK293 cells expressing human NaV1.3 channels; conditions: read-out: activities against Nav1.3
T1 construct: expressed in transfected cells; host or cells: HEK293
Protocol: (§1) The ability of the pyrrolopyridinone derivatives of the formula (I) to inhibit the NaV1.3, Nav1.7 and Nav1.5 channels is measured by Fluorescence Resonance Energy Transfer (FRET) assay and electrophysiology assay described below.
(§2) This screen is used to determine the effects of compounds on human NaV1.3, human Nav1.7, and human Nav1.5 channels, utilising electrical field stimulation (EFS) system in 96-well plate format on FDSS (Hamamatsu Photonics) platform. The change of membrane potential is monitored with FRET dye pair, oxonol (DiSBAC2(3)) and coumarin (CC2-DMPE).
(§3) Each HEK293 cells expressing human NaV1.3 channels and HEK293 cells expressing human NaV1.5 channels are grown in T225 flasks, in a 5% CO2 humidified incubator to about 80% confluence. Media composition consists of Dulbecco's Modified Eagle Medium (high glucose), 10% FCS, 100 units/mL penicillin, 100 microgram/mL streptomycin and 500 microgram/mL Geneticin™. […]
(§4) The data are analyzed and reported as normalized ratios of intensities measured at […]. […]
(§5) This analysis is performed using a computerized specific program designed for FDSS generated data. Fluorescence ratio values are plotted using XLfit™ to determine an IC50 value for each compound.

[2] = biological target: T2, human Nav1.5 channels (Homo sapiens, UniProt Q14524); experiment: FRET assay, HEK293 cells expressing human NaV1.5 channels; conditions: read-out: activities against Nav1.5
T2 construct: expressed in transfected cells; host or cells: HEK293
Protocol: as §1, §2, §3, §4, §5

[3] = biological target: T3, human Nav1.7 channels (Homo sapiens, UniProt Q15858); experiment: FRET assay, CHO cells expressing human NaV1.7 channels; conditions: read-out: activities against Nav1.7
T3 construct: expressed in transfected cells; host or cells: CHO
Protocol: as §1, §2
CHO cells expressing human NaV1.7 channels are grown in T225 flasks, in a 5% CO2 humidified incubator to about 80% confluence. Media composition consists of HAM/F12 with GlutaMAX™ I, 10% FCS, 100 units/mL penicillin and 100 microgram/mL hygromycin. […]
as §4, §5

[4] = biological target: T4, human Nav1.7 (hSCN9A) (Homo sapiens, UniProt Q15858); experiment: Electrophysiology assay (whole cell patch clamp), human Nav1.7 (hSCN9A) expressing CHO cells; conditions: dissociation constant for the inactivated state (Kinact); read-out: activities (Ki) against NaV1.7
T4 construct: expressed in transfected cells; host or cells: CHO
Protocol: (§6) Whole cell patch clamp recording is used to assess the efficacy or selectivity of Na channel blocker on human Nav1.3 (hSCN3A) expressing HEK293 cells or human Nav1.7 (hSCN9A) expressing CHO cells. Human Nav1.3 expressing HEK293 cells are grown in growth media which contain: Dulbecco's […] (DMEM), 10% heat-inactivated fetal bovine serum (FBS) (Hyclone Laboratories Inc), 100 microgram/mL penicillin/100 U/mL streptomycin, 150 microgram/mL Zeocin™, and 3 microgram/mL Geneticin. Human […], expressing CHO cells are grown in growth media which contain: HAM/F-12, 9% heat-inactivated FBS (Hyclone Laboratories Inc), and 100 microgram/mL penicillin/100 U/mL streptomycin, and 100 microgram/mL hygromycin.
(§7) Na channel expressing cells are dissociated by 0.05 trypsin-EDTA, and then seeded on cover glass for 24 to 48 hr. […]
(§8) The normalized steady-state inactivation curve is constructed using 2 sec (for vehicle) or 60 sec (for drugs) conditioning pulse to different potentials followed immediately by the test pulse to −10 mV. […] The affinity of drugs to resting state of Na channels (Kresting or Kt) is assessed by 30 msec test pulse from a negative holding potential of −120 or −130 mV, where virtually all channels are in the resting state. Kr value is calculated by a conventional 1:1 binding model: Kresting(Kr)={[drug]Imax,drug/(Imax,control−Imax,drug)} [Math.2] […]

[5] = biological target: T5, human Nav1.3 (hSCN3A) (Homo sapiens, UniProt Q9NY46); experiment: Electrophysiology assay (whole cell patch clamp), human Nav1.3 (hSCN3A) expressing HEK293 cells; conditions: dissociation constant for the inactivated state (Kinact); read-out: activities (Ki) against NaV1.3
T5 construct: expressed in transfected cells; host or cells: HEK293
Protocol: as §6, §7, §8

T4 sequence (Q15858 whole entry): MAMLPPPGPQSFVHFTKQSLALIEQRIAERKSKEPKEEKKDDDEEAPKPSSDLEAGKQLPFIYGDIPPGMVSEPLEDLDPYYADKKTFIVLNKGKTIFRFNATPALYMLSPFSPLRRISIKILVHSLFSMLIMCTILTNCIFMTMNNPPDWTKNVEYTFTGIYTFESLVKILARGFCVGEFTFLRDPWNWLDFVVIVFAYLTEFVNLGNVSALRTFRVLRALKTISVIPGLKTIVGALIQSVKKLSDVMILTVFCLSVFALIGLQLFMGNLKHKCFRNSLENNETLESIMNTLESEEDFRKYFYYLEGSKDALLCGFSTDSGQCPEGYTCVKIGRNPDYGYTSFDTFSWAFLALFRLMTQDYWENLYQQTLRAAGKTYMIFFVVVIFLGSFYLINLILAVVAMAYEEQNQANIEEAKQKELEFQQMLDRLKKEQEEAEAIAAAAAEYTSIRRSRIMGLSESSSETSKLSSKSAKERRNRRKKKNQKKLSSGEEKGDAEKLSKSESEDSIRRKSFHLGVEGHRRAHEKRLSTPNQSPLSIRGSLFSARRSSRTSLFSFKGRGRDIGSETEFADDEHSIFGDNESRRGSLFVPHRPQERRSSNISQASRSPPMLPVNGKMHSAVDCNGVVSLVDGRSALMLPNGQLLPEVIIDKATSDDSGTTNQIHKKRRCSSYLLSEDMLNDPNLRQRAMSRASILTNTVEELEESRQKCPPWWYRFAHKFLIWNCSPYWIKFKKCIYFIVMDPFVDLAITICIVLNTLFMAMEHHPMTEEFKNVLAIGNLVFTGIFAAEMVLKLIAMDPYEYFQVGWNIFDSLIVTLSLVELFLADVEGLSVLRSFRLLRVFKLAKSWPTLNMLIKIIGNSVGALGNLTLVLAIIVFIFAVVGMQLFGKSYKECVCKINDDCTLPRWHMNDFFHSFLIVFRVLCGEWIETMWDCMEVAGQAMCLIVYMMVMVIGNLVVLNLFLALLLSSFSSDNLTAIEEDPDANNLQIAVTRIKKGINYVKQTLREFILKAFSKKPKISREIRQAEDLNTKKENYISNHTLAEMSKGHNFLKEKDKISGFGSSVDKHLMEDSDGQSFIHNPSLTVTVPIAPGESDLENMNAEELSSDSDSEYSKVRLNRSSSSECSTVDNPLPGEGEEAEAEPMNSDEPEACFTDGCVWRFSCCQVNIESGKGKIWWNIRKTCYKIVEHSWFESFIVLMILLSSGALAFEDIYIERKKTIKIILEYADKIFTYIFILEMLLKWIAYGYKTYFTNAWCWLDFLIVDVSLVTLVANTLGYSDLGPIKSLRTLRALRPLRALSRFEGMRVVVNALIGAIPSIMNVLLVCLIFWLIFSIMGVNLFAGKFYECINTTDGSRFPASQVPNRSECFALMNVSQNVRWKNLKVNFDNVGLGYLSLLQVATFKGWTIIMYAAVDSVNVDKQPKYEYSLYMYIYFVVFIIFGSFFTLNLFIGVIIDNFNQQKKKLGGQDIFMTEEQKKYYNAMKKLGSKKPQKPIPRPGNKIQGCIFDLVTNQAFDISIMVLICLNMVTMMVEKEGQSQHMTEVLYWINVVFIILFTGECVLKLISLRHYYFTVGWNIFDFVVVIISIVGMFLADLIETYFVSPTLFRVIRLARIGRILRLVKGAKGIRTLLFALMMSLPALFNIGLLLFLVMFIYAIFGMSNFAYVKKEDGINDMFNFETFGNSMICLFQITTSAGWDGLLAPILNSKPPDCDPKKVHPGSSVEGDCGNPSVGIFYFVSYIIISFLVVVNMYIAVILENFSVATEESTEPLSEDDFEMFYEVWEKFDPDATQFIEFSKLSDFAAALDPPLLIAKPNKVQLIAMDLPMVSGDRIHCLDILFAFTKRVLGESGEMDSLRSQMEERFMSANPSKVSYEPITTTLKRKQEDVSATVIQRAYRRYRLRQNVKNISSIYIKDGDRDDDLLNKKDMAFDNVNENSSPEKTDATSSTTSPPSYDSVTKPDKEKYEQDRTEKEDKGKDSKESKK
T3 sequence (Q15858 whole entry): as above
T2 sequence (Q14524 whole entry): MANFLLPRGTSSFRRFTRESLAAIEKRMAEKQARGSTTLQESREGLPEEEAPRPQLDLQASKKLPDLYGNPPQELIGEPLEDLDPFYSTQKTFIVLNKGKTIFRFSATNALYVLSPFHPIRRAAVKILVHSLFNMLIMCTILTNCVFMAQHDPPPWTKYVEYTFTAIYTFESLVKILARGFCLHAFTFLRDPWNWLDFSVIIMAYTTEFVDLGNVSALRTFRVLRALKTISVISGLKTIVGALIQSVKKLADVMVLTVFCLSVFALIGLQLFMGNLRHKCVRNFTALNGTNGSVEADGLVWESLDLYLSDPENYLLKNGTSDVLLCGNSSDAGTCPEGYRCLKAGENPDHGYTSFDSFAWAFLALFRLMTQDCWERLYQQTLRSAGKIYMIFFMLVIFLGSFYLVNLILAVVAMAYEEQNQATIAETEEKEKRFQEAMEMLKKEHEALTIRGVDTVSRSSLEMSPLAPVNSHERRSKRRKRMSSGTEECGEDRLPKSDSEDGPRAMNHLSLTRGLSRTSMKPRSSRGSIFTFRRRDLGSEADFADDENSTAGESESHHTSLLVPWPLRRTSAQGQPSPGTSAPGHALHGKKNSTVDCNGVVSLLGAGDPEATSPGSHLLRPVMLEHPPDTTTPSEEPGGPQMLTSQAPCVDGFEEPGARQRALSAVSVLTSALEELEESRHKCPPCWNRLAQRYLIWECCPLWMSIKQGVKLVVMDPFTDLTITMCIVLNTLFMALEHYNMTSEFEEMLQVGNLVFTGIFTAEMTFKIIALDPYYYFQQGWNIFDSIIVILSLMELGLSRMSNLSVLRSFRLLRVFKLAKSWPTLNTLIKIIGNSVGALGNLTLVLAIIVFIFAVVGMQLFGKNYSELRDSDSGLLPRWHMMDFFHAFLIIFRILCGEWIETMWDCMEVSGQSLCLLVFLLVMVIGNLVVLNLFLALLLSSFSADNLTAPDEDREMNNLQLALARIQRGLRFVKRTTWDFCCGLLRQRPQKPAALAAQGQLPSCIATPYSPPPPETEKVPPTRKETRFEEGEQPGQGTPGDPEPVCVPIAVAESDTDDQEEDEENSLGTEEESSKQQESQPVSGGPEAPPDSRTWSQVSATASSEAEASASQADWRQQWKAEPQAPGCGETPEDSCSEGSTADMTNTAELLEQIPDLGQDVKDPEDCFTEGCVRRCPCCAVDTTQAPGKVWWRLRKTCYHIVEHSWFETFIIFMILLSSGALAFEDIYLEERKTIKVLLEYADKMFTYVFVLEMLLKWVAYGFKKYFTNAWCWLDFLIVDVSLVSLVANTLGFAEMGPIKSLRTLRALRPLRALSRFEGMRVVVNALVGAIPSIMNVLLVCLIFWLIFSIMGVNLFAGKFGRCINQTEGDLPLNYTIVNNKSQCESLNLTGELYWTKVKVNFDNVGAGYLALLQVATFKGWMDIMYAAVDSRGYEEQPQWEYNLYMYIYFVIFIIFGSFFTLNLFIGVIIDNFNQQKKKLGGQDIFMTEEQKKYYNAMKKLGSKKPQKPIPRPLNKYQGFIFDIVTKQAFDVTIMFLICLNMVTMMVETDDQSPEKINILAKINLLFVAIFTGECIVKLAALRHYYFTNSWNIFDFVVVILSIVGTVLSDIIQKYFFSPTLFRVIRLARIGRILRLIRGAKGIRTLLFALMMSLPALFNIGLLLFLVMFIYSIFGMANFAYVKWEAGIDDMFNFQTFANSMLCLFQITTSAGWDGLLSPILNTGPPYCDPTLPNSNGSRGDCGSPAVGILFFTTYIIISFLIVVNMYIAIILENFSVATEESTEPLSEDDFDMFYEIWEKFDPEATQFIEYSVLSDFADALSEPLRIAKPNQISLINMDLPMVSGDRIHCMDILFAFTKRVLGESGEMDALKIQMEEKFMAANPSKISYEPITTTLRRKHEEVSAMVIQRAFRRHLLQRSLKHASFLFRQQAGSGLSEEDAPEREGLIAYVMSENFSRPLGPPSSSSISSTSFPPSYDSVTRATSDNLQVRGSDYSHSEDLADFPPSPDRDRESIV

## CC(=O)Nc1nccc2c1CN(C(C)c1cnc(OCC(F)(F)F)c(C)c1)C2=O (single isomer, unassigned) [Example 2, N-(2-(1-(5-methyl-6-(2,2,2-trifluoroethoxy)pyridin-3-yl)ethyl)-1-oxo-2,3-dihydro-1H-pyrrolo[3,4-c]pyridin-4-yl)acetamide]
[1]
  pIC50: 6.36
[2]
  pIC50: < 4.52
[3]
  pIC50: 5.96

## Cc1cc(C(C)N2Cc3c(ccnc3NC(=O)C(C)C)C2=O)cnc1OCC(F)(F)F (single isomer, unassigned) [Example 3, N-(2-(1-(5-methyl-6-(2,2,2-trifluoroethoxy)pyridin-3-yl)ethyl)-1-oxo-2,3-dihydro-1H-pyrrolo[3,4-c]pyridin-4-yl)isobutyramide]
[4]
  pKi: 7.04
[5]
  pKi: 6.85
